From article PMC7545998, “A snake toxin as a theranostic agent for the type 2 vasopressin receptor” (Theranostics, 2020)

How the values were obtained:
[1] = test system: rat model of hyponatremia; test: Rat model of dDAVP-induced hyponatremia; assay type: in vivo
Procedure: Hyponatremia was induced in rats by continuous infusion of 10 ng/h of dDAVP and water gavage (Figure 2A). At day 0 (D0), the basal plasma sodium concentration was 145 ± 6 mM. […] In controls, plasma sodium decreased to 134 ± 1 mM and 125 ± 3 mM at D3 and D4, respectively. […] The concentration of 10 µg/kg increased plasma sodium by 12 mmol/l/24 h. This is considered as the highest acceptable correction rate in humans in order to avoid risk of osmotic demyelination. Rat weights were monitored during the experiment, each rat being its own reference.
Specific pathogen-free adult male Sprague-Dawley rats (body weight between 445 and 525 grams) were from Janvier laboratories (Le Genest St. Isle, 53941, Saint Berthevin Cedex, France) and acclimatized to the animal house conditions for 1 week. […] A stock […] solution of desmopressin (dDAVP) was prepared by dissolving 5 mg of drug in physiological saline. dDAVP was administered using subcutaneous ALZET osmotic mini-pumps (model 2002, DURECT Corporation, Cupertino, CA95014, USA) previously filled with a solution of dDAVP (pumping rate of 0.47±0.02 µL/h and mean fill volume of 233.6±4.7 µL). The dose of dDAVP (10 ng/h) was determined in preliminary experiments. Buprenorphine (Centravet, 03120 Lapalisse, France) was administered once a day at a dose of 0.02 mg/kg, s.c. from day 0 to day 3 in order to suppress post-operative pain. Water gavage (30 mL/kg) was performed 2 times per day (at 9 am and 4 pm) in the first 3 days following ALZET pump implantation, and at 9 am at day 4. Body weight was recorded every day in order to adjust for the volume of water to be administered. Rats had free access to standard rat chow, as well as water in their cages. […] On days 0, 2, 3 and 4, at 9 am, 400 µL of blood was collected from isoflurane- anesthetized rats from the tail vein with lithium heparinate (Sanofi-Aventis, Gentilly, France). Samples were centrifuged (4 °C, 2000 g, 5 min). Sodium was quantified by the Central Laboratory of the ENVT, Toulouse, France, on a VITROS 250/350/950/ 5, 1 FS, 4600 and integrated system VITROS 5600 (Ortho-Clinical Diagnostics, Buckinghamshire, United Kingdom). Multiple factor ANOVA followed by Tukey's test were used to test for significance. A P value < 0.05 was considered significant.

[2] = test system: Sprague-Dawley rats; test: Pharmacodynamics: diuresis and urine osmolality after single i.p. injection; assay type: in vivo, rat; design: k value of diuresis over time, first phase / k value of diuresis over time, second phase: unit not given here; details: for maximal diuresis: between first and second h post-injection; for half-life of diuresis decrease: mono-exponential
Procedure: Diuresis was maximal between the first and second h post-injection (pi), with volumes of 29.5, 45.6, 70.9, 67.6 and 79.1 mL/kg/h for the doses of 3, 10, 30, 100 and 356 nmol/kg, respectively (Figure 3C). […] For the highest dose of 356 nmol/kg, the diuresis decreased quickly during the first 4 h and then lasted for four days.
Sprague-Dawley rats are aged between 6 and 12 weeks, between 237 g and 545 g and were use up to 3 times. […] Urine was collected at various times, and centrifuged for 30 min at 20,800 g. Urine osmolality was determined with an osmometer (Knauer, Berlin, Germany). For the pharmacokinetic experiments, a catheter was implanted in the rat jugular vein five days before the experiment. Blood samples of 400 μl were taken at various times under heparin conditions. Blood was centrifuged at 2000 g for 5 min at 4 °C and plasma was frozen at -20 °C.
Sample preparation is described in Table S1. […] The mobile phase consisted of 0.1% formic acid in water (A) and 0.1% formic acid in acetonitrile (B) running in a gradient mode from B 2% to B 100% in 3 min. […] The mass spectrometer was operated in positive ESI and MRM mode. […] A model was selected based on the extravascular (i.p.) route of administration. For the i.p. route, concentration at time zero was assumed to be zero. For each rat, the first concentration below the LLOQ was set at LLOQ/2 for calculation of PK parameters. The area under the plasma concentration versus time curve (AUC) was calculated using the linear trapezoidal method (linear interpolation). When appropriate, the terminal elimination phase of the PK profile was estimated based on the best fit (r^2) using at least the last six observed concentrations. […] The same approach was used to model diuresis over time and two k values were obtained as 0.37774 and 0.02326. Lastly, the PK/PD correlation was achieved after calculating concentrations and diuresis volumes over time based on the equation y = A0*e^-kt where A0 was the computed concentration or diuresis volume at the origin of each phase.

[3] = 356 nmol/kg i.p., bi-exponential analysis
[4] = single i.p. 1 nmol/kg, 0-24 h, n=6
[5] = single i.p. 3 nmol/kg, 0-24 h, n=6
[6] = single i.p. 3 nmol/kg, 24 - 48 h, n=6
[7] = single i.p. 10 nmol/kg, 0-24 h, n=11
[8] = single i.p. 10 nmol/kg, 24 - 48 h, n=11
[9] = single i.p. 30 nmol/kg, 0-24 h, n=11
[10] = single i.p. 30 nmol/kg, 24 - 48 h, n=11
[11] = single i.p. 100 nmol/kg, 0-24 h, n=12
[12] = single i.p. 100 nmol/kg, 24 - 48 h, n=12
[13] = single i.p. 356 nmol/kg, 0-24 h, n=17
[14] = single i.p. 356 nmol/kg, 24 - 48 h, n=17
[15] = single i.p. 356 nmol/kg, 72 h (24-h period), n=12
[16] = single i.p. 356 nmol/kg, 96 h (24-h period), n=12

Substance: mambaquaretin [MQ1]
- plasma sodium ([1]; 10 µg/kg ([…]) s.c. on days 2-4, D3): 145 ± 3 mM
- plasma sodium ([1]; 10 µg/kg ([…]) s.c. on days 2-4, D4): 148 ± 2 mM
- plasma sodium ([1]; 100 µg/kg (16 nmol/kg) s.c. on days 2-4, D3): 146 ± 2 mM
- plasma sodium ([1]; 100 µg/kg (16 nmol/kg) s.c. on days 2-4, D4): 154 ± 2 mM
- maximal diuresis ([2]; 3 nmol/kg i.p.): 29.5 mL/kg/h
- half-life of diuresis decrease ([2]; 3 nmol/kg i.p.): 3.7 h
- maximal diuresis ([2]; 10 nmol/kg i.p.): 45.6 mL/kg/h
- half-life of diuresis decrease ([2]; 10 nmol/kg i.p.): 2.4 h
- maximal diuresis ([2]; 30 nmol/kg i.p.): 70.9 mL/kg/h
- half-life of diuresis decrease ([2]; 30 nmol/kg i.p.): 2.4 h
- maximal diuresis ([2]; 100 nmol/kg i.p.): 67.6 mL/kg/h
- half-life of diuresis decrease ([2]; 100 nmol/kg i.p.): 1.2 h
- maximal diuresis ([2]; 356 nmol/kg i.p.): 79.1 mL/kg/h
- fast half-life (T1/2α) of diuresis [2, 3]: 1.2 h
- slow half-life (T1/2β) of diuresis [2, 3]: 27.3 h
- k value of diuresis over time, first phase ([2]; 356 nmol/kg i.p., modelled): 0.3777
- k value of diuresis over time, second phase ([2]; 356 nmol/kg i.p., modelled): 0.02326
- diuresis and osmolality compared to control ([2]; single 1 nmol/kg i.p.): statistically unchanged
- Diuresis Average [2, 4]: 2.34 mL/h/kg
- Excretion Average [2, 4]: 2206 µosm/h/kg
- Osmolarity Averag [2, 4]: 1158 mOsmol/kgH2O
- Diuresis Average [2, 5]: 5.13 mL/h/kg
- Excretion Average [2, 5]: 2710 µosm/h/kg
- Osmolarity Averag [2, 5]: 503 mOsmol/kgH2O
- Diuresis Average [2, 6]: 1.53 mL/h/kg
- Excretion Average [2, 6]: 3077 µosm/h/kg
- Osmolarity Averag [2, 6]: 2000 mOsmol/kgH2O
- Diuresis Average [2, 7]: 7.82 mL/h/kg
- Excretion Average [2, 7]: 2092 µosm/h/kg
- Osmolarity Averag [2, 7]: 273 mOsmol/kgH2O
- Diuresis Average [2, 8]: 1.58 mL/h/kg
- Excretion Average [2, 8]: 2117 µosm/h/kg
- Osmolarity Averag [2, 8]: 1332 mOsmol/kgH2O
- Diuresis Average [2, 9]: 10.45 mL/h/kg
- Excretion Average [2, 9]: 2280 µosm/h/kg
- Osmolarity Averag [2, 9]: 214 mOsmol/kgH2O
- Diuresis Average [2, 10]: 2.25 mL/h/kg
- Excretion Average [2, 10]: 2064 µosm/h/kg
- Osmolarity Averag [2, 10]: 937 mOsmol/kgH2O
- Diuresis Average [2, 11]: 12.83 mL/h/kg
- Excretion Average [2, 11]: 2046 µosm/h/kg
- Osmolarity Averag [2, 11]: 162 mOsmol/kgH2O
- Diuresis Average [2, 12]: 2.74 mL/h/kg
- Excretion Average [2, 12]: 1930 µosm/h/kg
- Osmolarity Averag [2, 12]: 703 mOsmol/kgH2O
- Diuresis Average [2, 13]: 20.95 mL/h/kg
- Excretion Average [2, 13]: 2658 µosm/h/kg
- Osmolarity Averag [2, 13]: 136 mOsmol/kgH2O
- Diuresis Average [2, 14]: 9.64 mL/h/kg
- Excretion Average [2, 14]: 2617 µosm/h/kg
- Osmolarity Averag [2, 14]: 283 mOsmol/kgH2O
- Diuresis Average [2, 15]: 6.00 mL/h/kg
- Excretion Average [2, 15]: 2617 µosm/h/kg
- Osmolarity Averag [2, 15]: 455 mOsmol/kgH2O
- Diuresis Average [2, 16]: 3.76 mL/h/kg
- Excretion Average [2, 16]: 2838 µosm/h/kg
- Osmolarity Averag [2, 16]: 754 mOsmol/kgH2O
